The target of series [1] is T1, 2-5A-dependent ribonuclease (Homo sapiens, UniProt Q05823).
T1 sequence (Q05823 whole entry): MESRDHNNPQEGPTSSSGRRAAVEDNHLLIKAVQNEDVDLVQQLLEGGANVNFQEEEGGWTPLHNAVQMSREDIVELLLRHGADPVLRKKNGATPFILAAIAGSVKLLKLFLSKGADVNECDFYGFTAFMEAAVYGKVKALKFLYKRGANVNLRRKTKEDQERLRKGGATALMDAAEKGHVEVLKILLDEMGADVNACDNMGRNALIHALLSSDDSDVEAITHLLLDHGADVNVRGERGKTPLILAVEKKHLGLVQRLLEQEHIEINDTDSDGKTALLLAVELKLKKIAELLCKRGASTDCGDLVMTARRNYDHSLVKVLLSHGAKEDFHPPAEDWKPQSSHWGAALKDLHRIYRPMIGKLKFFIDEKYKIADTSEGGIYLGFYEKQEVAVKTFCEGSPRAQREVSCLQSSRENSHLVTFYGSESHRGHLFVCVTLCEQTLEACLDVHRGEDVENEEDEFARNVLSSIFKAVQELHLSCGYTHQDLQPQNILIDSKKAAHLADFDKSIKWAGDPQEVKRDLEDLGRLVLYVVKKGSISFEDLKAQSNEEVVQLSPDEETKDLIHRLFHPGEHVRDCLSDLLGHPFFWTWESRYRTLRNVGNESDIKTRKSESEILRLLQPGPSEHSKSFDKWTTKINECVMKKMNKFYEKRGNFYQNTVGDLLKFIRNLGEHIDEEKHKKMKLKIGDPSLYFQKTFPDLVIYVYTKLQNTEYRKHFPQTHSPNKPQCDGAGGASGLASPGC
Kind of series: […] of human RNaseL ANK domain expressed in Escherichia coli assessed as 5' flurescein-r(C11U2C7)-3' RNA cleavage. The conditions noted are these: for pEC50: read-out: EC50.

In series [2] the target is T2, 2-5A-dependent ribonuclease (Homo sapiens) (UniProt Q05823).
T2 sequence (whole entry): T1 sequence (Q05823 whole entry)
Kind of series: […] of human RNaseL ANK domain expressed in Escherichia col assessed as 5' flurescein-r(C11U2C7)-3' RNA cleavage relative to control. Also on record: concentration or dose not given beside the values.

Series [3] in a line: Stability assessed as half life. Format: physicochemical.

From ChEMBL document CHEMBL1157739, “5'-O-dephosphorylated 2',5'-oligoadenylate (2-5A) with 8-methyladenosine at the 2'-terminus activates human RNase L” (Bioorg Med Chem Lett, 2010) come the findings set out here.

Molecules are shown by their SMILES. pEC50: −log10 of the molar value. The source made the active and inactive calls. Bounds are passed on as bounds.

Turning to `Cc1nc2c(N)ncnc2n1[C@@H]1O[C@H](COP(=O)(O)O[C@@H]2[C@H](O)[C@@H](COP(=O)(O)O[C@@H]3[C@H](O)[C@@H](COP(=O)(O)O[C@@H]4[C@H](O)[C@@H](CO)O[C@H]4n4cnc5c(N)ncnc54)O[C@H]3n3cnc4c(N)ncnc43)O[C@H]2n2cnc3c(N)ncnc32)[C@@H](O)[C@H]1O`, in series [1], the pEC50 was 8.60. In series [2], the Activity came out at 3.9%. In addition, in series [3], the half-life is greater than 90 min.
`Nc1ncnc2c1ncn2[C@@H]1O[C@H](COP(=O)(O)O[C@@H]2[C@H](O)[C@@H](COP(=O)(O)O[C@@H]3[C@H](O)[C@@H](COP(=O)(O)O[C@@H]4[C@H](O)[C@@H](CO)O[C@H]4n4cnc5c(N)ncnc54)O[C@H]3n3cnc4c(N)ncnc43)O[C@H]2n2cnc3c(N)ncnc32)[C@@H](O)[C@H]1O`: the EC50 result in series [1] is “Not Active”. Also, the result in series [2] was inactive. Besides, the half-life in series [3] was determined as 18 min.
In the case of `Cc1nc2c(N)ncnc2n1[C@@H]1O[C@H](COP(=O)(O)O[C@@H]2[C@H](O)[C@@H](COP(=O)(O)O[C@@H]3[C@H](O)[C@@H](CO)O[C@H]3n3cnc4c(N)ncnc43)O[C@H]2n2cnc3c(N)ncnc32)[C@@H](O)[C@H]1OP(=O)(O)OC[C@H]1O[C@@H](n2cnc3c(N)ncnc32)[C@H](O)[C@@H]1O`, the negative-log EC50 (pEC50) in series [1] was less than 7.30. The Activity in series [2] was less than 0.19%. For the same molecule, in series [3], the half-life stood at 18 min.
In the same order, the values of `Nc1ncnc2c1ncn2[C@@H]1O[C@H](COP(=O)(O)O[C@@H]2[C@H](O)[C@@H](COP(=O)(O)O[C@@H]3[C@H](O)[C@@H](COP(=O)(O)O[C@@H]4[C@H](O)[C@@H](COP(=O)(O)O)O[C@H]4n4cnc5c(N)ncnc54)O[C@H]3n3cnc4c(N)ncnc43)O[C@H]2n2cnc3c(N)ncnc32)[C@@H](O)[C@H]1O` are 8.01, 1% and 14 min.
On to `Cc1nc2c(N)ncnc2n1[C@@H]1O[C@H](COP(=O)(O)O[C@@H]2[C@H](O)[C@@H](COP(=O)(O)O[C@@H]3[C@H](O)[C@@H](CO)O[C@H]3n3cnc4c(N)ncnc43)O[C@H]2n2cnc3c(N)ncnc32)[C@@H](O)[C@H]1O`, for which, in series [1], the negative logarithm of the EC50 (pEC50) was less than 7.30. For the same molecule, the Activity in series [2] was less than 0.19%. For the same molecule, the half-life in series [3] turned out to be 18 min.
As for `Cc1nc2c(N)ncnc2n1[C@@H]1O[C@H](COP(=O)(O)O[C@@H]2[C@H](O)[C@@H](COP(=O)(O)O[C@@H]3[C@H](O)[C@@H](COP(=O)(O)O[C@@H]4[C@H](O)[C@@H](COP(=O)(O)O)O[C@H]4n4cnc5c(N)ncnc54)O[C@H]3n3cnc4c(N)ncnc43)O[C@H]2n2cnc3c(N)ncnc32)[C@@H](O)[C@H]1O`, the pEC50 in series [1] is 8.60. Besides, the Activity in series [2] is 3.9%.

By pEC50 is commonly meant −log10 of the EC50, conventionally taken in molar units. In general, half-life refers to the time needed for the level to fall by half in the phase considered.
